Source: patent publication US7713994B2 (Wyeth LLC, priority 2005, dated 2010)
Where two headings read alike, the source gives them in different places.

Assays:
[1] = tested on: HCT-116; test: Cytotoxicity assay (SRB), HCT-116; type: cell-based; details: Homo sapiens, HCT-116, 72 h, HCT116 cells, SRB, read-out: In Vitro Cellular Activity IC50 HCT116
Summary of the method: (§1)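 Growth inhibition, SRB method: 3-day continuous compound exposure for HCT-116, LoVo and MCF-7 and 6-day exposure for BT474. Absorbance at 540 nm reflects surviving cell protein relative to controls.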

[2] = tested on: BT474; test: Cytotoxicity assay (SRB), BT474; type: cell-based
Summary of the method: as §1

[3] = tested on: MCF-7; test: Cytotoxicity assay (SRB), MCF-7; type: cell-based; details: Homo sapiens, MCF7, 72 h, MCF-7 cells, SRB, read-out: In Vitro Cellular Activity IC50 MCF-7
Summary of the method: as §1

[4] = tested on: LoVo; test: Cytotoxicity assay (SRB), LoVo; type: cell-based; details: Homo sapiens, LoVo, 72 h, LoVo cells, SRB, read-out: In Vitro Cellular Activity IC50 LOVO
Summary of the method: as §1

[5] = target: T1, cyclin B/CDK1 enzyme (Homo sapiens, UniProt P06493); test: CDK1 ELISA kinase assay (phospho-Rb ser 795 detection); type: biochemical; details: In Vitro Enzyme Assays, read-out: CDK1 IC50
T1 construct: purchased New England BioLabs; host or cells: Sf9 insect cells, recombinant baculovirus
T1 sequence (P06493 whole entry): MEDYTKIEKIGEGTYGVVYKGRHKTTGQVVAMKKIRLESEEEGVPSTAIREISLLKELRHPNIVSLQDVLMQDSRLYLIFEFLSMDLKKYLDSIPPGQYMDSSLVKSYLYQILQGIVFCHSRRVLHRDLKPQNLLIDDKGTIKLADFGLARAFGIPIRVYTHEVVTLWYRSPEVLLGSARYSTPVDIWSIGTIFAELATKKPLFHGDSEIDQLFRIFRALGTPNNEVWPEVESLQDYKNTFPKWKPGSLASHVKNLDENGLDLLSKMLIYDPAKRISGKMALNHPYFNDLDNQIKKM
T1 sequence (P14635 whole entry partner): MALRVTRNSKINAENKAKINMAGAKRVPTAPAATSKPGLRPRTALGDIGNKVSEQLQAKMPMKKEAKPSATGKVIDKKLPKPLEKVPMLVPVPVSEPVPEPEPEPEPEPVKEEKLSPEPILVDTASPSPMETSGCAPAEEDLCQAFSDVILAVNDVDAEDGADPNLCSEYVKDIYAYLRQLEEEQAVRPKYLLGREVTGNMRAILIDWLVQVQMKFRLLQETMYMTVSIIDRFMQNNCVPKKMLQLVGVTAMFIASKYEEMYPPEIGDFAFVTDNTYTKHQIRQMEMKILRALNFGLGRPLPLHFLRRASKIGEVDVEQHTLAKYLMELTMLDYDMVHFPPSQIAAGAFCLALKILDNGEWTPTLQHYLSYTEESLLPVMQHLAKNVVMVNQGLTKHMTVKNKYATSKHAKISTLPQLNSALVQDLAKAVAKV
Summary of the method: (§2)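 ELISA format: plate-bound GST-Rb, 200 μM ATP, Sf9 cyclin/CDK enzyme, 1 h at 30° C; then anti-pRb Ser795 primary overnight at 4° C, HRP secondary, TMB. IC50 after no-substrate background subtraction.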

[6] = target: T2, cyclin D1/cdk 4 enzyme (Homo sapiens, UniProt P11802); test: CDK4 ELISA kinase assay (phospho-Rb ser 795 detection); type: biochemical; details: In Vitro Enzyme Assays, 200 μM ATP, read-out: CDK4 IC50
T2 construct: made in house; host or cells: Sf9 insect cells, recombinant baculovirus
T2 sequence (P11802 whole entry, species assumed): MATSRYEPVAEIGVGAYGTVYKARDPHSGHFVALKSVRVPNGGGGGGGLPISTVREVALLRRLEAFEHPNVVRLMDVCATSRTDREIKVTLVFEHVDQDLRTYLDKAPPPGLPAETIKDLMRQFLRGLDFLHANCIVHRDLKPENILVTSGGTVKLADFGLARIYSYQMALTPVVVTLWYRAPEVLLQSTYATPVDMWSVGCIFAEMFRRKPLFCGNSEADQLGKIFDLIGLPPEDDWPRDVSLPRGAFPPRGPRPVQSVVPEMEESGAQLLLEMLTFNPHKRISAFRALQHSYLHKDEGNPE
T2 sequence (P24385 whole entry partner, species assumed): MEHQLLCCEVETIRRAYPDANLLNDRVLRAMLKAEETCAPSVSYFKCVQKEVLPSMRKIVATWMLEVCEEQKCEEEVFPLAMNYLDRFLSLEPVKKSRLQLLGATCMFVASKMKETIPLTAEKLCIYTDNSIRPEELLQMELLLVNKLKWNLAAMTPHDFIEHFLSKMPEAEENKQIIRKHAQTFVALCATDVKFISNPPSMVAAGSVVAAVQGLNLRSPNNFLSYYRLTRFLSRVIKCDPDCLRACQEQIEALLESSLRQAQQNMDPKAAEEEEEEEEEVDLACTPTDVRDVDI
Summary of the method: as §2

[7] = Homo sapiens, BT-474, 144 h, BT474 cells, SRB, 6 days; read-out: In Vitro Cellular Activity IC50 BT474

## COc1ccc(CN/C=C2\C(=O)NC(=O)c3cc(Br)ccc32)cc1O [Example 135, (4Z)-7-Bromo-4-{[(3-hydroxy-4-methoxybenzyl)amino]methylene}isoquinoline-1,3(2H,4H)-dione]
[1]; three days
  IC50: 31 µM
[2]; [7]
  IC50: > 50 µM
other
  melting point: 297 to 298 °C
[3]; three days
  IC50: > 50 µM
[4]; three days
  IC50: > 50 µM

## CCCOc1ccc(CN/C=C2\C(=O)NC(=O)c3ccc(I)cc32)nc1O [Example 510, 4-{[(6-Hydroxy-5-propoxy-pyridin-2-ylmethyl)-amino]-methylene}-6-iodo-4H-isoquinoline-1,3-dione]
[1]; 3 days
  IC50: 0.67 µM
[2]; Homo sapiens, BT-474, 144 h, BT474 cells, 6 days, SRB; read-out: In Vitro Cellular Activity IC50 BT474
  IC50: 0.16 µM
other
  melting point: 275 to 281 °C (dec.)
[3]; 3 days
  IC50: 1.4 µM
[4]; 3 days
  IC50: 0.42 µM

## COc1ccc(CN/C=C2\C(=O)NC(=O)c3ccc(Br)cc32)cc1OC(C)=O [Example 57, 5-({[(Z)-(6-Bromo-1,3-dioxo-2,3-dihydroisoquinolin-4(1H)-ylidene)methyl]amino}methyl)-2-methoxyphenyl acetate]
[1]; three days
  IC50: 9.6 µM
[2]; [7]
  IC50: 3.7 µM
other
  melting point: 226 to 227 °C
[3]; three days
  IC50: > 50 µM
[4]; three days
  IC50: 5.2 µM

## COC[C@H]1CCCN1c1ccc2c(c1)/C(=C/Nc1ccc(CN3CCCCC3)cc1)C(=O)NC2=O [Example 121, (4Z)-6-[(2R)-2-(Methoxymethyl)pyrrolidin-1-yl]-4-({[4-(piperidin-1-ylmethyl)phenyl]amino}methylene)isoquinoline-1,3(2H,4H)-dione]
[1]; three days
  IC50: 5.5 µM
[2]; [7]
  IC50: 7.7 µM
other
  melting point: 135 to 136 °C
[3]; three days
  IC50: 4.6 µM
[4]; three days
  IC50: 3.8 µM

## CN1CCN(c2ccc(NC=C3C(=O)NC(=O)c4ccc(OCCN5CCOCC5)cc43)cc2)CC1 [Example 155, 4-{[4-(4-Methyl-piperazin-1-yl)-phenylamino]-methylene}-6-(2-morpholin-4-yl-ethoxy)-4H-isoquinoline-1,3-dione]
[1]; three days
  IC50: 17 µM
[2]; [7]
  IC50: 22 µM
other
  melting point: 142 to 143 °C
[3]; three days
  IC50: 26 µM
[4]; three days
  IC50: 19 µM

## O=C1NC(=O)c2ccc(Br)cc2C1=CNCc1cc(=O)c(O)co1 [Example 313, 6-Bromo-4-{[(5-hydroxy-4-oxo-4H-pyran-2-ylmethyl)-amino]-methylene}-4H-isoquinoline-1,3-dione]
[1]; three days
  IC50: 27 µM
[2]; [7]
  IC50: 43 µM
other
  melting point: 293 to 297 °C (dec.)
[3]; three days
  IC50: 22 µM
[4]; three days
  IC50: 41 µM

## COc1cc2c(cc1Br)/C(=C/Nc1ccc(N3CCN(C)CC3)cc1)C(=O)NC2=O [Example 242, 6-Bromo-7-methoxy-4-{[4-(4-methyl-piperazin-1-yl)-phenylamino]-methylene}-4H-isoquinoline-1,3-dione]
[1]; three days
  IC50: 2.1 µM
[2]; [7]
  IC50: 3.2 µM
other
  melting point: 274 to 276 °C
[3]; three days
  IC50: 5.2 µM
[4]; three days
  IC50: 4.5 µM

## COC[C@H]1CCCN1Cc1ccc(N/C=C2\C(=O)NC(=O)c3ccc(-c4ccc(OC(C)C)cc4)cc32)cc1 [Example 300, (4Z)-6-(4-Isopropoxyphenyl)-4-{[(4-{[(2R)-2-(methoxymethyl)pyrrolidin-1-yl]methyl}phenyl)amino]methylene}isoquinoline-1,3(2H,4H)-dione]
[1]; three days
  IC50: 3.1 µM
[2]; [7]
  IC50: 17 µM
other
  melting point: 200 to 201 °C
[3]; three days
  IC50: 8.7 µM
[4]; three days
  IC50: 26 µM

## O=C1NC(=O)c2ccc(-c3ccc(O)cc3)cc2/C1=C/Nc1ccc(CN2CCCCC2)cc1 [Example 103]
[5]
  IC50: > 50 µM
[2]; [7]
  IC50: 3.7 µM
[6]
  IC50: 0.041 µM
other
  melting point: 244 to 245 °C
[4]; three days
  IC50: 2.3 µM

## CN1CCN(c2ccc(N/C=C3\C(=O)NC(=O)c4ccc(C#CCOC5CCCCO5)cc43)cc2)CC1 (stereo not shown) [Example 161, (4Z)-4-({[4-(4-Methylpiperazin-1-yl)phenyl]amino}methylene)-6-[3-(tetrahydro-2H-pyran-2-yloxy)prop-1-ynyl]isoquinoline-1,3(2H,4H)-dione]
[1]; three days
  IC50: 2.2 µM
[2]; [7]
  IC50: 3.4 µM
other
  melting point: 175 to 176 °C
[3]; three days
  IC50: 4 µM
[4]; three days
  IC50: 6.4 µM

## O=C1NC(=O)c2ccc(I)cc2/C1=C/Nc1ccc(OCc2ccccn2)cc1 [Example 247]
[1]; three days
  IC50: 18 µM
[2]; [7]
  IC50: 35 µM
other
  melting point: 265 to 266 °C
[3]; three days
  IC50: > 50 µM
[4]; three days
  IC50: > 50 µM
